Measurements from ChEMBL document CHEMBL1201862, “PubChem BioAssay data set” (2004).
Several values for one entry are separate records, joined by “and”; a condition that tells them apart may be missing. Identical values can stand only once.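 Exposure lasted 48 hours, with cells grown in 96-well plates and compounds tested at five concentrations. The concentration for 50% growth inhibition is given as GI50.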 Activity calls are given as the source filed them. Rule as the data show it: active = GI50 up to about 1.1 µM and inactive = higher.

Assays:
Assay in all cases: growth of human tumour cells (NCI), 48 h
DMS-114 = system: DMS-114
DMS-273 = system: DMS-273
HOP-18 = system: HOP-18
KM-20L2 = system: KM-20L2
LXFL 529 = system: LXFL 529
M19-MEL = system: M19-MEL
RXF 631 = system: RXF 631
SNB-78 = system: SNB-78
XF498 = system: XF498

Compound | GI50 (DMS-114) | GI50 (DMS-273) | GI50 (HOP-18) | GI50 (KM-20L2) | GI50 (LXFL 529) | GI50 (M19-MEL) | GI50 (RXF 631) | GI50 (SNB-78) | GI50 (XF498)
Cc1cc(N(CCC#N)CCC#N)ccc1/C=C1\N=C(c2cc([N+](=O)[O-])ccc2Cl)N(c2cccc(Cl)c2)C1=O | > 100 µM (inactive) | > 100 µM (inactive) | > 100 µM (inactive) | > 100 µM (inactive) | > 100 µM (inactive) | > 100 µM (inactive) | > 100 µM (inactive) | > 100 µM (inactive) | –
COC(=O)CSc1ccccc1 | – | > 100 µM (inactive) | > 100 µM (inactive) | > 100 µM (inactive) | > 100 µM (inactive) | > 100 µM (inactive) | > 100 µM (inactive) | > 100 µM (inactive) | > 100 µM (inactive)
O=c1cc(-c2ccccc2)oc2cc(OCCSCCCCCCCCCCSCCOc3ccc4c(=O)cc(-c5ccccc5)oc4c3)ccc12 | > 100 µM (inactive) | – | > 100 µM (inactive) | > 100 µM (inactive) | > 100 µM (inactive) | > 100 µM (inactive) | > 100 µM (inactive) | 68.2 µM (inactive) | –
Nc1nc(N)c(CCCCc2ccc([N+](=O)[O-])cc2)c(N)n1 | 20.8 µM (inactive) | 11.6 µM (inactive) | > 100 µM (inactive) | 36.1 µM (inactive) | 47.8 µM (inactive) | > 100 µM (inactive) | – | > 100 µM (inactive) | > 100 µM (inactive)
COC1/C(=C\C(=O)OC(C)(C)C)c2ccccc2N1C(C)=O (configuration not stated) | 54.3 µM (inactive) | > 100 µM (inactive) | > 100 µM (inactive) | > 100 µM (inactive) | > 100 µM (inactive) | > 100 µM (inactive) | > 100 µM (inactive) | > 100 µM (inactive) | 57.5 µM (inactive)
Nc1ncnc2c1ncn2C1CC(OCc2ccccc2[N+](=O)[O-])C(CO)O1 (configuration not stated) | 16.4 µM (inactive) | 18.4 µM (inactive) | 26.6 µM (inactive) | 22.2 µM (inactive) | 13.6 µM (inactive) | 16.1 µM (inactive) | – | 18.2 µM (inactive) | 42.2 µM (inactive)
CCCCOC1CC2(c3ccc(OC)cc3)C(=O)c3ccccc3N2O1 (configuration not stated) | 30 µM (inactive) | > 10 µM (inactive) | – | > 10 µM (inactive) | – | > 10 µM (inactive) | > 10 µM (inactive) | > 10 µM (inactive) | > 10 µM (inactive)
COc1ccc(/C=c2/sc3n(c2=O)NC(c2ccc(Cl)cc2)NN=3)cc1 (configuration not stated) | 58.5 µM (inactive) | > 100 µM (inactive) | – | > 100 µM (inactive) | > 100 µM (inactive) | > 100 µM (inactive) | – | > 100 µM (inactive) | 51.8 µM (inactive)
COc1ccc(OC)c(/C=C/[N+](=O)[O-])c1 | 4.74 µM (inactive) | 2.61 µM (inactive) | 1.85 µM (inactive) | 4.69 µM (inactive) | 1.91 µM (inactive) | 2.39 µM (inactive) | 2.83 µM (inactive) | 6.84 µM (inactive) | 2.94 µM (inactive)
O=C(O)Cn1c(=O)[nH]c(=O)c2c1ncn2Cc1ccccc1 | > 100 µM (inactive) | > 100 µM (inactive) | – | > 100 µM (inactive) | > 100 µM (inactive) | > 100 µM (inactive) | > 100 µM (inactive) | > 100 µM (inactive) | > 100 µM (inactive)
CCCCCC(=O)Cc1cc(OC)cc2c1C(=O)Oc1cc(O)c(C(=O)O)c(CC(=O)CCCCC)c1O2 | 33.9 µM (inactive) | 32.1 µM (inactive) | – | 49.4 µM (inactive) | 55.5 µM (inactive) | 26.2 µM (inactive) | 35.6 µM (inactive) | 44.4 µM (inactive) | > 100 µM (inactive)
Nc1nnc2c(-c3ccccc3)n[nH]c2n1 | > 100 µM (inactive) | 50.9 µM (inactive) | – | 49.8 µM (inactive) | 77.4 µM (inactive) | – | – | 49.3 µM (inactive) | –
CSc1nnc2n1-c1ccccc1SCC2 | > 100 µM (inactive) | > 100 µM (inactive) | > 100 µM (inactive) | > 100 µM (inactive) | > 100 µM (inactive) | > 100 µM (inactive) | – | > 100 µM (inactive) | > 100 µM (inactive)
COc1cc2cc[n+]3c4cc(OC)c(OC)cc4c(C)cc3c2cc1OC | > 100 µM (inactive) | > 100 µM (inactive) | > 100 µM (inactive) | > 100 µM (inactive) | 35.6 µM (inactive) | > 100 µM (inactive) | > 100 µM (inactive) | > 100 µM (inactive) | > 100 µM (inactive)
COc1nc(/C=N/NC(N)=S)nc(OC)n1 | 47.5 µM (inactive) | 56.9 µM (inactive) | > 100 µM (inactive) | 35.4 µM (inactive) | > 100 µM (inactive) | 65.3 µM (inactive) | 44.2 µM (inactive) | > 100 µM (inactive) | > 100 µM (inactive)
CCCCCCCCCCCCCP(=O)(O)OCC | > 100 µM (inactive) | – | > 100 µM (inactive) | > 100 µM (inactive) | > 100 µM (inactive) | > 100 µM (inactive) | > 100 µM (inactive) | > 100 µM (inactive) | –
CC(C)OP(=S)(NC(=S)c1ccccc1)OC(C)C | 78 µM (inactive) | > 100 µM (inactive) | – | > 100 µM (inactive) | 87.3 µM (inactive) | – | – | > 100 µM (inactive) | > 100 µM (inactive)
O=C1C=CC2(O)OCC3C=C4O[C@@H]5OC6(CCCCC6)O[C@@H]5C4[C@@H]2[C@@H]13 (some centres not stated) | 21.5 µM (inactive) | 50.4 µM (inactive) | > 100 µM (inactive) | 48.3 µM (inactive) | 15.1 µM (inactive) | 21.1 µM (inactive) | – | 24.4 µM (inactive) | 27.2 µM (inactive)
NCCCC1NC(=O)/C(=C(O)/C=C/C2CCC[C@@H]2CC2SCCS2)C1=O (some centres not stated) | 86.3 µM (inactive) | 74.8 µM (inactive) | 82.6 µM (inactive) | > 100 µM (inactive) | 75 µM (inactive) | > 100 µM (inactive) | – | – | –
COC(=O)CC(C(C(C)=O)C(=O)OCc1ccccc1)N1C(=O)OC(c2ccccc2)C1c1ccccc1 (configuration not stated) | 30.5 µM (inactive) and 39.4 µM (inactive) | > 100 µM (inactive) and 78.5 µM (inactive) | – | – | 49.1 µM (inactive) and 50.4 µM (inactive) | 85.1 µM (inactive) and 73.8 µM (inactive) | 89.7 µM (inactive) | – | 67.1 µM (inactive)
Cc1nc(-c2nc(C)c(C(=O)NNC(=O)C[n+]3ccccc3)s2)sc1C(=O)NNC(=O)C[n+]1ccccc1 | 66.8 µM (inactive) | – | – | > 100 µM (inactive) | 91 µM (inactive) | > 100 µM (inactive) | – | 54.8 µM (inactive) | –
c1ccc2c(CNCCCCCCCCNCc3cccc4ccccc34)cccc2c1 | 1.91 µM (inactive) | 2.01 µM (inactive) | 5.41 µM (inactive) | 1.75 µM (inactive) | 1.82 µM (inactive) | 1.73 µM (inactive) | – | 2.24 µM (inactive) | 1.79 µM (inactive)
COc1ccc(NCc2cc(OC)c(OC)c(OC)c2)cc1 | – | 0.178 µM (active) | – | 0.238 µM (active) | 0.408 µM (active) | – | – | – | –
CC(CN1CC(=O)NC(=O)C1)N1CC(=O)NC(=O)C1 (configuration not stated) [RAZOXANE] | 67.9 µM (inactive) | 513 µM (inactive) | 277 µM (inactive) | 174 µM (inactive) | – | 299 µM (inactive) | – | 449 µM (inactive) | 234 µM (inactive)
C1=Cc2nc1c(-c1ccccc1)c1nc(c(-c3ccccc3)c3ccc([nH]3)c(-c3ccccc3)c3ccc([nH]3)c2-c2ccccc2)C=C1 [TETRAPHENYLPORPHYRIN] | > 100 µM (inactive) | > 100 µM (inactive) | > 100 µM (inactive) | > 100 µM (inactive) | > 100 µM (inactive) | > 100 µM (inactive) | > 100 µM (inactive) | > 100 µM (inactive) | –
